Data as given in patent US8952147B2, “Conjugates, preparation thereof, and therapeutic use thereof” (Sanofi, priority 2009, dated 2015).

Experiments:
Type in all cases: cell-based
[1] = system: HCT116 cells; assay: Inhibition of proliferation of HCT116 cells by the cytotoxic agents (14C-thymidine incorporation); conditions: Homo sapiens, HCT-116, 3 days culture, 14C-thymidine incorporation at 96 hours
Method: (§1) Evaluation of the inhibition of proliferation of MDA-MB-231, MDA-A1 and HCT116 cell lines by the cytotoxic agents, study performed on the compounds of formula (II) of the type SZa with Za═SMe or of the type —C(═O)—ZbRb with ZbRb=OMe or OCH2—CH═CH2 The MDA-MB-231, MDA-A1 or HCT116 cells in their exponential growth phase are trypsinized and resuspended in their respective culture medium (DMEM/F12 Gibco #21331, 10% FCS Gibco #10500-056, […] Gibco #25030 for the MDA cells; DMEM Gibco #11960, 10% FCS Gibco #10500-056, 2 mM glutamine Gibco #25030 for the HCT116 cells). The cell suspension is seeded in Cytostar 96-well culture plates (GE Healthcare Europe, #RPNQ0163) in the whole culture medium containing serum at a density of 5000 cells/well (MDA-MB-231, MDA-A1, HCT116). After incubation for 4 hours, successive dilutions of the cryptophycin derivatives are added to the wells at concentrations decreasing from 10^−7 to 10^−12 M (in triplicate for each concentration). The cells are cultured for 3 days at 37° C. under an atmosphere containing 5% CO2 in the presence of the cytotoxic agents. On the 4th day, 10 μl of a ^14C-thymidine solution (0.1 μCi/well, Perkin Elmer #NEC56825000) are added to each well. The incorporation of ^14C-thymidine is measured 96 hours after the start of the experiment using a microbeta radioactivity counter (Perkin Elmer). The data are expressed in the form of a percentage of survival by determining the ratio between the reduced count obtained with the cells treated with cytotoxic agent and the count obtained with the cells of the control wells (treated with the culture medium alone).

[2] = system: MDA-MB-231 cells; assay: Inhibition of proliferation of MDA-MB-231 cells by the cytotoxic agents (14C-thymidine incorporation); conditions: Homo sapiens, 3 days culture, 14C-thymidine incorporation at 96 hours
Method: as §1

[3] = system: MDA-A1 cells; assay: Inhibition of proliferation of MDA-A1 cells by the cytotoxic agents (14C-thymidine incorporation); conditions: 3 days culture, 14C-thymidine incorporation at 96 hours
Method: as §1

SMILES | IC50 [1] [nM] | IC50 [2] [nM] | IC50 [3] [nM]
COc1ccc(C[C@H]2NC(=O)/C=C/C[C@@H]([C@H](C)[C@H]3O[C@@H]3c3ccc(CN4CCN(C(=O)CCC(C)(C)SSC)CC4)cc3)OC(=O)[C@H](CC(C)C)OC(=O)C(C)(C)CNC2=O)cc1Cl [Compound 7, (E)-(3S,10R,16S)-10-(3-Chloro-4-methoxybenzyl)-3-isobutyl-6,6-dimethyl-16-[(S)-1-((2R,3R)-3-{4-[4-(4-methyl-4-methyldisulfanylpentanoyl)piperazin-1-ylmethyl]phenyl}oxiranyl)-ethyl]-1,4-dioxa-8,11-diazacyclohexadec-13-ene-2,5,9,12-tetraone] | 0.315 | 0.303 | 7.95
COC(=O)CCCc1cn(Cc2ccc([C@H]3O[C@@H]3[C@@H](C)[C@@H]3C/C=C/C(=O)N[C@H](Cc4ccc(OC)c(Cl)c4)C(=O)NCC(C)(C)C(=O)O[C@@H](CC(C)C)C(=O)O3)cc2)nn1 [Compound 62, Methyl (1-{4-[(2R,3R)-3-((S)-1-{(E)-(3S,10R,16S)-10-[3-chloro-4-methoxybenzyl]-3-isobutyl-6,6-dimethyl-2,5,9,12-tetraoxo-1,4-dioxa-8,11-diazacyclohexadec-13-en-16-yl}ethyl)-oxiranyl]benzyl}-1H-1,2,3-triazol-4-yl)butanoate] | 0.035 | 0.095 | 10.9
C=CCOC(=O)CN1CCN(Cc2ccc([C@H]3O[C@@H]3[C@@H](C)[C@@H]3C/C=C/C(=O)N[C@H](Cc4ccc(OC)c(Cl)c4)C(=O)NCC(C)(C)C(=O)O[C@@H](CC(C)C)C(=O)O3)cc2)CC1 [Compound 40, Allyl (4-{4-[(2R,3R)-3-((S)-1-{(E)-(3S,10R,16S)-10-[3-chloro-4-methoxybenzyl]-3-isobutyl-6,6-dimethyl-2,5,9,12-tetraoxo-1,4-dioxa-8,11-diazacyclohexadec-13-en-16-yl}ethyl)-oxiranyl]benzyl}piperazin-1-yl)acetate] | 0.12 | 0.293 | 1.58
COc1ccc(C[C@H]2NC(=O)/C=C/C[C@@H]([C@H](C)[C@H]3O[C@@H]3c3ccc(CN(C)CCOCCOCCOCCN(C)CC(C)(C)SSC)cc3)OC(=O)[C@H](CC(C)C)OC(=O)C(C)(C)CNC2=O)cc1Cl [Compound 30] | 0.031 | 0.03 | 11.9
COc1ccc(C[C@H]2NC(=O)/C=C/C[C@@H]([C@H](C)[C@H]3O[C@@H]3c3ccc(CO)cc3)OC(=O)[C@H](CC(C)C)OC(=O)[C@H](C)CNC2=O)cc1Cl [Compound 8, reference compound] | 0.052 | 0.104 | 0.828
COc1ccc(C[C@H]2NC(=O)/C=C/C[C@@H]([C@H](C)[C@H]3O[C@@H]3c3ccc(CNCC(C)(C)SSC)cc3)OC(=O)[C@H](CC(C)C)OC(=O)C(C)(C)CNC2=O)cc1Cl [Compound 13, (E)-(3S,10R,16S)-10-(3-Chloro-4-methoxybenzyl)-3-isobutyl-16-[(S)-1-((2R,3R)-3-{4-[(2-methyl-2-methyldisulfanylpropylamino)methyl]phenyl}oxiranyl)ethyl]-6,6-dimethyl-1,4-dioxa-8,11-diazacyclohexadec-13-ene-2,5,9,12-tetraone] | 0.336 | 0.529 | 9.76
COc1ccc(C[C@H]2NC(=O)/C=C/C[C@@H]([C@H](C)[C@@H]3O[C@H]3c3ccc(CO)cc3)OC(=O)[C@H](CC(C)C)OC(=O)C(C)(C)CNC2=O)cc1Cl [Compound 57] | 1.13 | 1.19 | 29
COc1ccc(C[C@H]2NC(=O)/C=C/C[C@@H]([C@H](C)[C@H]3O[C@@H]3c3ccc(CO)cc3)OC(=O)[C@H](CC(C)C)OC(=O)C(C)(C)CNC2=O)cc1Cl [Compound 1, reference compound] | 0.032 | 0.041 | 1.07
COc1ccc(C[C@H]2NC(=O)/C=C/C[C@@H]([C@H](C)[C@H]3O[C@@H]3c3ccc(CN)cc3)OC(=O)[C@H](CC(C)C)OC(=O)C(C)(C)CNC2=O)cc1Cl [Compound 77, (E)-(3S,10R,16S)-16-{(S)-1-[(2R,3R)-3-(4-Aminomethylphenyl)oxiranyl]ethyl}-10-(3-chloro-4-methoxybenzyl)-3-isobutyl-6,6-dimethyl-1,4-dioxa-8,11-diazacyclohexadec-13-ene-2,5,9,12-tetraone] | 0.105 | 0.17 | 15.1
C=CCOC(=O)CCOCCOCCOCCOCCNCc1ccc([C@H]2O[C@@H]2[C@@H](C)[C@@H]2C/C=C/C(=O)N[C@H](Cc3ccc(OC)c(Cl)c3)C(=O)NCC(C)(C)C(=O)O[C@@H](CC(C)C)C(=O)O2)cc1 [Compound 44, Allyl (2-{2-[2-(2-{4-[(2R,3R)-3-((S)-1-{(E)-(3S,10R,16S)-10-[3-chloro-4-methoxy-benzyl]-3-isobutyl-6,6-dimethyl-2,5,9,12-tetraoxo-1,4-dioxa-8,11-diazacyclohexadec-13-en-16-yl}ethyl)oxiranyl]benzylamino}ethoxy)ethoxy]ethoxy}ethoxy)propanoate] | 0.135 | 0.156 | 15.6
COc1ccc(C[C@H]2NC(=O)/C=C/C[C@@H]([C@H](C)[C@H]3O[C@@H]3c3ccc(CN4CCN(CC(C)(C)SSC)CC4)cc3)OC(=O)[C@H](CC(C)C)OC(=O)C(C)(C)CNC2=O)cc1Cl [Compound 19, (E)-(3S,10R,16S)-10-(3-Chloro-4-methoxybenzyl)-3-isobutyl-6,6-dimethyl-16-[(S)-1-((2R,3R)-3-{4-[4-(2-methyl-2-methyldisulfanylpropyl)piperazin-1-ylmethyl]phenyl}oxiranyl)ethyl]-1,4-dioxa-8,11-diazacyclohexadec-13-ene-2,5,9,12-tetraone] | 0.152 | 0.149 | 2.71
